Laboratory results taken from ChEMBL document CHEMBL4270589, “Novel coumarin-pyrazole carboxamide derivatives as potential topoisomerase II inhibitors: Design, synthesis and antibacterial activity” (Eur J Med Chem, 2018).
Converted amounts (≈) assume the structure as drawn.

How the values were obtained:
Assay type in all cases: functional
Staphylococcus aureus = assay: Antibacterial activity against Staphylococcus aureus ATCC 12600 after 24 hrs by agar dilution method; conditions: ATCC 12600, 24 h
Escherichia coli = assay: Antibacterial activity against Escherichia coli ATCC 25922 after 24 hrs by agar dilution method; conditions: ATCC 25922, 24 h
Salmonella enterica = assay: Antibacterial activity against Salmonella enterica ATCC 9184 after 24 hrs by agar dilution method; conditions: ATCC 9184, 24 h
Listeria monocytogenes = assay: Antibacterial activity against Listeria monocytogenes ATCC 15313 after 24 hrs by agar dilution method; conditions: ATCC 15313, 24 h

| SMILES | MIC (Staphylococcus aureus) [mg/L] | MIC (Escherichia coli) [mg/L] | MIC (Salmonella enterica) [mg/L] | MIC (Listeria monocytogenes) [mg/L] |
| --- | --- | --- | --- | --- |
| CCOC(=O)c1cnn(-c2ccc(F)cc2)c1NC(=O)c1cc2cc(Cl)ccc2oc1=O | > 128 | 64 (≈ 140 µM) | 64 (≈ 140 µM) | > 128 |
| N#Cc1cnn(-c2ccc(F)cc2)c1NC(=O)c1cc2cc(Cl)ccc2oc1=O | 32 (≈ 78.3 µM) | 32 (≈ 78.3 µM) | 64 (≈ 157 µM) | 32 (≈ 78.3 µM) |
| Cc1ccc(-n2ncc(C(=O)O)c2NC(=O)c2cc3cc(Br)ccc3oc2=O)cc1 | 64 (≈ 137 µM) | 64 (≈ 137 µM) | > 128 | > 128 |
| CCN(CC)c1ccc2cc(C(=O)Nc3c(C#N)cnn3-c3ccc(Cl)cc3)c(=O)oc2c1 | 2 (≈ 4.33 µM) | 2 (≈ 4.33 µM) | 16 (≈ 34.6 µM) | 8 (≈ 17.3 µM) |
| CCOC(=O)c1cnn(-c2ccc(F)cc2)c1NC(=O)c1cc2ccccc2oc1=O | > 128 | > 128 | > 128 | > 128 |
| CCOC(=O)c1cnn(-c2ccc(C)cc2)c1NC(=O)c1cc2cc([N+](=O)[O-])ccc2oc1=O | > 128 | > 128 | > 128 | > 128 |
| Cc1ccc2oc(=O)c(C(=O)Nc3c(C#N)cnn3-c3ccc(F)cc3)cc2c1 | > 128 | > 128 | > 128 | > 128 |
| O=C(O)c1cnn(-c2ccccc2)c1NC(=O)c1cc2ccccc2oc1=O | > 128 | > 128 | > 128 | 32 (≈ 85.3 µM) |
| N#Cc1cnn(-c2ccccc2)c1NC(=O)c1cc2cc(Cl)ccc2oc1=O | 16 (≈ 40.9 µM) | 32 (≈ 81.9 µM) | 64 (≈ 164 µM) | 32 (≈ 81.9 µM) |
| Cc1ccc(-n2ncc(C(=O)O)c2NC(=O)c2cc3cc(Cl)ccc3oc2=O)cc1 | > 128 | > 128 | > 128 | 16 (≈ 37.8 µM) |
| N#Cc1cnn(-c2ccccc2)c1NC(=O)c1cc2ccccc2oc1=O | 16 (≈ 44.9 µM) | 64 (≈ 180 µM) | 32 (≈ 89.8 µM) | 64 (≈ 180 µM) |
| N#Cc1cnn(-c2ccc(F)cc2)c1NC(=O)c1cc2ccccc2oc1=O | > 128 | > 128 | > 128 | 64 (≈ 171 µM) |
| CCOC(=O)c1cnn(-c2ccc(C)cc2)c1NC(=O)c1cc2cc(C)ccc2oc1=O | 32 (≈ 74.2 µM) | 64 (≈ 148 µM) | > 128 | > 128 |
| CCN(CC)c1ccc2cc(C(=O)Nc3c(C(=O)O)cnn3-c3ccc(F)cc3)c(=O)oc2c1 | 32 (≈ 68.9 µM) | 32 (≈ 68.9 µM) | 16 (≈ 34.4 µM) | 16 (≈ 34.4 µM) |
| CCOC(=O)c1cnn(-c2ccccc2)c1NC(=O)c1cc2ccc(N(CC)CC)cc2oc1=O | 64 (≈ 135 µM) | 64 (≈ 135 µM) | 64 (≈ 135 µM) | 64 (≈ 135 µM) |
| Cc1ccc(-n2ncc(C#N)c2NC(=O)c2cc3cc([N+](=O)[O-])ccc3oc2=O)cc1 | > 128 | > 128 | > 128 | > 128 |
| Cc1ccc2oc(=O)c(C(=O)Nc3c(C(=O)O)cnn3-c3ccccc3)cc2c1 | 64 (≈ 164 µM) | 32 (≈ 82.2 µM) | 32 (≈ 82.2 µM) | 32 (≈ 82.2 µM) |
| O=C(O)c1cnn(-c2ccc(F)cc2)c1NC(=O)c1cc2cc(Cl)ccc2oc1=O | 64 (≈ 150 µM) | 32 (≈ 74.8 µM) | > 128 | 32 (≈ 74.8 µM) |
| O=C(O)c1cnn(-c2ccc(F)cc2)c1NC(=O)c1cc2cc(Br)ccc2oc1=O | > 128 | 4 (≈ 8.47 µM) | 32 (≈ 67.8 µM) | 32 (≈ 67.8 µM) |
| CCN(CC)c1ccc2cc(C(=O)Nc3c(C(=O)O)cnn3-c3ccc(C)cc3)c(=O)oc2c1 | 64 (≈ 139 µM) | 64 (≈ 139 µM) | 64 (≈ 139 µM) | 64 (≈ 139 µM) |
| N#Cc1cnn(-c2ccc(F)cc2)c1NC(=O)c1cc2cc(Br)ccc2oc1=O | 2 (≈ 4.41 µM) | 64 (≈ 141 µM) | > 128 | 64 (≈ 141 µM) |
| O=C(O)c1cnn(-c2ccccc2)c1NC(=O)c1cc2cc(Br)ccc2oc1=O | > 128 | > 128 | > 128 | > 128 |
| Cc1ccc2oc(=O)c(C(=O)Nc3c(C(=O)O)cnn3-c3ccc(Cl)cc3)cc2c1 | 16 (≈ 37.8 µM) | 8 (≈ 18.9 µM) | 16 (≈ 37.8 µM) | 16 (≈ 37.8 µM) |
| Cc1ccc(-n2ncc(C(=O)O)c2NC(=O)c2cc3cc([N+](=O)[O-])ccc3oc2=O)cc1 | > 128 | 4 (≈ 9.21 µM) | 64 (≈ 147 µM) | > 128 |
| CCOC(=O)c1cnn(-c2ccccc2)c1NC(=O)c1cc2cc(Br)ccc2oc1=O | 16 (≈ 33.2 µM) | 16 (≈ 33.2 µM) | 64 (≈ 133 µM) | 16 (≈ 33.2 µM) |
| CCOC(=O)c1cnn(-c2ccc(F)cc2)c1NC(=O)c1cc2cc(Br)ccc2oc1=O | 64 (≈ 128 µM) | 4 (≈ 8 µM) | > 128 | > 128 |

The next lines start with the values.

| MIC (Staphylococcus aureus) [mg/L] | MIC (Escherichia coli) [mg/L] | MIC (Salmonella enterica) [mg/L] | MIC (Listeria monocytogenes) [mg/L] | SMILES |
| --- | --- | --- | --- | --- |
| 2 (≈ 4.23 µM) | 4 (≈ 8.47 µM) | 32 (≈ 67.8 µM) | 32 (≈ 67.8 µM) | CCOC(=O)c1cnn(-c2ccc(Cl)cc2)c1NC(=O)c1cc2cc(Cl)ccc2oc1=O |
| 64 (≈ 152 µM) | 64 (≈ 152 µM) | 64 (≈ 152 µM) | > 128 | O=C(O)c1cnn(-c2ccccc2)c1NC(=O)c1cc2cc([N+](=O)[O-])ccc2oc1=O |
| 32 (≈ 65.5 µM) | 4 (≈ 8.19 µM) | 32 (≈ 65.5 µM) | 32 (≈ 65.5 µM) | O=C(O)c1cnn(-c2ccc(Cl)cc2)c1NC(=O)c1cc2cc(Br)ccc2oc1=O |
| > 128 | > 128 | > 128 | 32 (≈ 76.7 µM) | CCOC(=O)c1cnn(-c2ccc(C)cc2)c1NC(=O)c1cc2ccccc2oc1=O |
| > 128 | > 128 | > 128 | > 128 | N#Cc1cnn(-c2ccc(F)cc2)c1NC(=O)c1cc2cc([N+](=O)[O-])ccc2oc1=O |
| > 128 | > 128 | > 128 | > 128 | CCOC(=O)c1cnn(-c2ccccc2)c1NC(=O)c1cc2cc([N+](=O)[O-])ccc2oc1=O |
| 32 (≈ 70.4 µM) | 32 (≈ 70.4 µM) | 32 (≈ 70.4 µM) | 32 (≈ 70.4 µM) | O=C(O)c1cnn(-c2ccc(Cl)cc2)c1NC(=O)c1cc2cc([N+](=O)[O-])ccc2oc1=O |
| > 128 | > 128 | > 128 | > 128 | O=C(O)c1cnn(-c2ccc(F)cc2)c1NC(=O)c1cc2ccccc2oc1=O |
| 32 (≈ 68.6 µM) | 64 (≈ 137 µM) | > 128 | 8 (≈ 17.2 µM) | CCOC(=O)c1cnn(-c2ccc(F)cc2)c1NC(=O)c1cc2cc([N+](=O)[O-])ccc2oc1=O |
| 32 (≈ 78.1 µM) | 64 (≈ 156 µM) | 32 (≈ 78.1 µM) | 32 (≈ 78.1 µM) | O=C(O)c1cnn(-c2ccc(Cl)cc2)c1NC(=O)c1cc2ccccc2oc1=O |
| 16 (≈ 39.7 µM) | 64 (≈ 159 µM) | 2 (≈ 4.96 µM) | 64 (≈ 159 µM) | CCOC(=O)c1cnn(-c2ccccc2)c1NC(=O)c1cc2ccccc2oc1=O |
| 4 (≈ 8.52 µM) | 8 (≈ 17 µM) | 0.25 (≈ 0.532 µM) | 16 (≈ 34.1 µM) | N#Cc1cnn(-c2ccc(Cl)cc2)c1NC(=O)c1cc2cc(Br)ccc2oc1=O |
| > 128 | > 128 | > 128 | > 128 | CCOC(=O)c1cnn(-c2ccc(F)cc2)c1NC(=O)c1cc2ccc(N(CC)CC)cc2oc1=O |
| 8 (≈ 17.7 µM) | 4 (≈ 8.85 µM) | 8 (≈ 17.7 µM) | 16 (≈ 35.4 µM) | CCOC(=O)c1cnn(-c2ccc(Cl)cc2)c1NC(=O)c1cc2cc(C)ccc2oc1=O |
| > 128 | > 128 | > 128 | > 128 | O=C(O)c1cnn(-c2ccc(F)cc2)c1NC(=O)c1cc2cc([N+](=O)[O-])ccc2oc1=O |
| 4 (≈ 8.85 µM) | 64 (≈ 142 µM) | > 128 | 2 (≈ 4.43 µM) | CCOC(=O)c1cnn(-c2ccc(C)cc2)c1NC(=O)c1cc2cc(Cl)ccc2oc1=O |
| > 128 | > 128 | > 128 | > 128 | Cc1ccc(-n2ncc(C#N)c2NC(=O)c2cc3cc(Cl)ccc3oc2=O)cc1 |
| 32 (≈ 79.3 µM) | 64 (≈ 159 µM) | > 128 | > 128 | Cc1ccc(-n2ncc(C(=O)O)c2NC(=O)c2cc3cc(C)ccc3oc2=O)cc1 |
| 32 (≈ 78.1 µM) | 32 (≈ 78.1 µM) | > 128 | 32 (≈ 78.1 µM) | O=C(O)c1cnn(-c2ccccc2)c1NC(=O)c1cc2cc(Cl)ccc2oc1=O |
| 16 (≈ 36.5 µM) | 64 (≈ 146 µM) | 16 (≈ 36.5 µM) | 64 (≈ 146 µM) | CCOC(=O)c1cnn(-c2ccc(Cl)cc2)c1NC(=O)c1cc2ccccc2oc1=O |
| 16 (≈ 36.7 µM) | 4 (≈ 9.18 µM) | 0.125 (≈ 0.287 µM) | 8 (≈ 18.4 µM) | N#Cc1cnn(-c2ccc(Cl)cc2)c1NC(=O)c1cc2cc([N+](=O)[O-])ccc2oc1=O |
| 4 (≈ 10.2 µM) | 32 (≈ 81.9 µM) | 16 (≈ 40.9 µM) | 32 (≈ 81.9 µM) | N#Cc1cnn(-c2ccc(Cl)cc2)c1NC(=O)c1cc2ccccc2oc1=O |
| 4 (≈ 7.74 µM) | 8 (≈ 15.5 µM) | 32 (≈ 61.9 µM) | 1 (≈ 1.94 µM) | CCOC(=O)c1cnn(-c2ccc(Cl)cc2)c1NC(=O)c1cc2cc(Br)ccc2oc1=O |
| 64 (≈ 144 µM) | 64 (≈ 144 µM) | 64 (≈ 144 µM) | > 128 | CCN(CC)c1ccc2cc(C(=O)Nc3c(C#N)cnn3-c3ccc(F)cc3)c(=O)oc2c1 |
| 64 (≈ 157 µM) | 4 (≈ 9.82 µM) | 32 (≈ 78.6 µM) | 32 (≈ 78.6 µM) | Cc1ccc2oc(=O)c(C(=O)Nc3c(C(=O)O)cnn3-c3ccc(F)cc3)cc2c1 |
| 2 (≈ 4.48 µM) | 8 (≈ 17.9 µM) | 0.25 (≈ 0.56 µM) | 1 (≈ 2.24 µM) | CCN(CC)c1ccc2cc(C(=O)Nc3c(C(=O)O)cnn3-c3ccccc3)c(=O)oc2c1 |
| 32 (≈ 76.7 µM) | 16 (≈ 38.3 µM) | 16 (≈ 38.3 µM) | 32 (≈ 76.7 µM) | CCOC(=O)c1cnn(-c2ccccc2)c1NC(=O)c1cc2cc(C)ccc2oc1=O |
| > 128 | > 128 | > 128 | > 128 | N#Cc1cnn(-c2ccccc2)c1NC(=O)c1cc2cc([N+](=O)[O-])ccc2oc1=O |
| 32 (≈ 64.5 µM) | 32 (≈ 64.5 µM) | 2 (≈ 4.03 µM) | 2 (≈ 4.03 µM) | CCOC(=O)c1cnn(-c2ccc(C)cc2)c1NC(=O)c1cc2cc(Br)ccc2oc1=O |
| 64 (≈ 164 µM) | 64 (≈ 164 µM) | > 128 | > 128 | Cc1ccc(-n2ncc(C(=O)O)c2NC(=O)c2cc3ccccc3oc2=O)cc1 |
